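Values below derive from 48-hour exposures of cells grown in 96-well plates, with endpoints linearly interpolated between the two concentrations bracketing the appropriate inhibition level. Here, GI50 denotes the concentration required for 50% inhibition of growth. TGI is the concentration that stops growth completely.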
What was measured:
Assay in all cases: growth of human tumour cells (NCI), 48 h; in the data active = GI50 below about 0.43 µM; inactive = the rest
MDA-MB-435 = system: MDA-MB-435
HT29 colon = system: HT29 colon
IGROV1 ovarian = system: IGROV1 ovarian
U251 CNS = system: U251 CNS
SNB-19 CNS = system: SNB-19 CNS
HOP-92 NSCLC = system: HOP-92 NSCLC
OVCAR-5 ovarian = system: OVCAR-5 ovarian
RXF 393 renal = system: RXF 393 renal
HS 578T breast = system: HS 578T breast
LOX IMVI melanoma = system: LOX IMVI melanoma
MOLT-4 leukemia = system: MOLT-4 leukemia
SF-295 CNS = system: SF-295 CNS
A549 NSCLC = system: A549 NSCLC
RPMI-8226 leukemia = system: RPMI-8226 leukemia
HL-60(TB) leukemia = system: HL-60(TB) leukemia
HCT-116 colon = system: HCT-116 colon
HOP-62 NSCLC = system: HOP-62 NSCLC
SW-620 colon = system: SW-620 colon
NCI-H23 lung = system: NCI-H23 lung
SK-MEL-5 melanoma = system: SK-MEL-5 melanoma
NCI/ADR-RES ovarian = system: NCI/ADR-RES ovarian
CAKI-1 renal = system: CAKI-1 renal
CCRF-CEM leukemia = system: CCRF-CEM leukemia
OVCAR-4 ovarian = system: OVCAR-4 ovarian
DU-145 prostate = system: DU-145 prostate
EKVX NSCLC = system: EKVX NSCLC
SK-MEL-28 melanoma = system: SK-MEL-28 melanoma
MDA-MB-468 breast = system: MDA-MB-468 breast
NCI-H226 lung = system: NCI-H226 lung
M14 melanoma = system: M14 melanoma

CC(=C(c1ccc(OCCN2CCCCC2)cc1)c1ccc(OCCN2CCCCC2)cc1)c1ccccc1
10.1 µM: TGI (HCT-116 colon)
6.68 µM: TGI (SK-MEL-28 melanoma)
12.9 µM: TGI (MOLT-4 leukemia)
11.7 µM: TGI (HT29 colon)
6.87 µM: TGI (SK-MEL-5 melanoma)
21.7 µM: TGI (CCRF-CEM leukemia)
7.17 µM: TGI (SF-295 CNS)
8.51 µM: TGI (U251 CNS)
6.86 µM: TGI (SW-620 colon)
> 21.8 µM: TGI (IGROV1 ovarian) | TGI (SNB-19 CNS) | TGI (HOP-92 NSCLC) | TGI (OVCAR-5 ovarian) | TGI (A549 NSCLC) | TGI (RPMI-8226 leukemia) | TGI (HOP-62 NSCLC) | TGI (NCI-H23 lung) | TGI (NCI/ADR-RES ovarian) | TGI (CAKI-1 renal) | TGI (OVCAR-4 ovarian) | TGI (DU-145 prostate) | TGI (EKVX NSCLC) | TGI (NCI-H226 lung)
9.45 µM: TGI (MDA-MB-468 breast)
6.59 µM: TGI (LOX IMVI melanoma)
6.88 µM: TGI (MDA-MB-435)
10.9 µM: TGI (HS 578T breast)
10.4 µM: TGI (RXF 393 renal)
inactive: GI50 (MDA-MB-435) 3.25 µM | GI50 (HT29 colon) 3.77 µM | GI50 (IGROV1 ovarian) 9.78 µM | GI50 (U251 CNS) 3.76 µM | GI50 (SNB-19 CNS) 6.88 µM | GI50 (HOP-92 NSCLC) 5.01 µM | GI50 (OVCAR-5 ovarian) 11.7 µM | GI50 (RXF 393 renal) 3.21 µM | GI50 (HS 578T breast) 3.33 µM | GI50 (LOX IMVI melanoma) 3.48 µM | GI50 (MOLT-4 leukemia) 4.15 µM | GI50 (SF-295 CNS) 3.52 µM | GI50 (A549 NSCLC) 5.91 µM | GI50 (RPMI-8226 leukemia) 6.54 µM | GI50 (HL-60(TB) leukemia) 2670 nM | GI50 (HCT-116 colon) 3.43 µM | GI50 (HOP-62 NSCLC) 6.45 µM | GI50 (SW-620 colon) 2950 nM | GI50 (NCI-H23 lung) 12.5 µM | GI50 (SK-MEL-5 melanoma) 3.64 µM | GI50 (NCI/ADR-RES ovarian) 12.1 µM | GI50 (CAKI-1 renal) 5.01 µM | GI50 (CCRF-CEM leukemia) 5.2 µM | GI50 (OVCAR-4 ovarian) 7.66 µM | GI50 (DU-145 prostate) 12.4 µM | GI50 (EKVX NSCLC) > 21.8 µM | GI50 (SK-MEL-28 melanoma) 3.62 µM | GI50 (MDA-MB-468 breast) 3.79 µM | GI50 (NCI-H226 lung) > 21.8 µM | GI50 (M14 melanoma) 3.95 µM
7.09 µM: TGI (HL-60(TB) leukemia)

Reference: PubChem BioAssay (NCI)
